Where two headings read alike, the source gives them in different places. One block for each compound: values may come before it.
Key:
[1] = Rodent pharmacokinetics, male CD1 mouse, plasma PK; format: in vivo; settings: PO 10 mg/kg vs IV 5 mg/kg, read-out: F (oral bioavailability)
Procedure: Formulation: 10% DMSO, 90% Saline Dosing: 10 mg/kg P.O. and 5 mg/kg I.V. Plasma PK Summary: […]

[2] = Rodent pharmacokinetics, male Balb/c mouse, plasma PK; format: in vivo; settings: for Oral Bioavailability (F): summary table, PO 10 mg/kg
Procedure: Animals in Group 1 were administered intravenously with Example B solution formulation in 20% Propylene Glycol, 50% of PEG 400 and 30% of (20% HPβCD in water) via tail vein at a dose of 3 mg/kg.
Animals in Group 2 were administered with oral solution formulation of Example B in 20% Propylene Glycol, 50% of PEG 400 and 30% of (20% HPβCD in water) at a dose of 10 mg/kg;
Dosing: 10 mg/kg P.O. and 3 mg/kg I.V.
Animals in Group 1 were administered intravenously with Example G solution formulation in 5% NMP, 5% solutol HS-15 in 90% HPIβCD solution (20% HPβCD in RO water) at 3 mg/kg dose.
Animals in Group 2 were administered orally with 10 mg/kg solution formulation of Example G in 5% NMP, 5% solutol HS-15 in 90% HPβCD solution (20% HPβCD in RO water)

- bioavailability ([1]; mesylate salt): 73.8%
SMILES: c1cc(-c2nc(N3CCOCC3)c3oc4ncc(CN5C[C@@H]6C[C@H]5CO6)cc4c3n2)c2cc[nH]c2c1 [Example A, 4-(1H-Indol-4-yl)-6-(morpholin-4-yl)-12-[(1S,4S)-2-oxa-5-azabicyclo[2.2.1]heptan-5-ylmethyl]-8-oxa-3,5,10-triazatricyclo[7.4.0.0^2,7]trideca-1(13),2(7),3,5,9,11-hexaene]

SMILES: c1cc(-c2nc(N3CCOCC3)c3oc4ncc(CN5CCC6(CC5)COC6)cc4c3n2)c2cc[nH]c2c1 [Example B, 4-(1H-Indol-4-yl)-6-(morpholin-4-yl)-12-{2-oxa-7-azaspiro[3.5]nonan-7-ylmethyl}-8-oxa-3,5,10-triazatricyclo[7.4.0.0^2,7]trideca-1(13),2(7),3,5,9,11-hexaene]
- Clearance ([2]; IV, 3 mg/kg, mesylate salt): 33.06 mL/min/kg
- Oral Bioavailability (F) [2]: 74

SMILES: c1cc(-c2nc(N3CCOCC3)c3oc4ncc(CN5CCC56COC6)cc4c3n2)c2cc[nH]c2c1 [Example G, 4-(1H-indol-4-yl)-6-(morpholin-4-yl)-12-{6-oxa-1-azaspiro[3.3]heptan-1-ylmethyl}-8-oxa-3,5,10-triazatricyclo[7.4.0.0^2,7]trideca-1(13), 2(7), 3,5,9,11-hexaene]
- Oral Bioavailability (F) [2]: 30

- bioavailability ([1]; HCl salt): 29.6%
SMILES: c1cc(-c2nc(N3CCOCC3)c3oc4ncc(CN5CCCCC5)cc4c3n2)c2cc[nH]c2c1 [Example I in WO2011/021038, reference compound]

— patent US11291669B2, “Compositions comprising phosphoinositide 3-kinase inhibitors and a second antiproliferative agent” (Karus Therapeutics Limited, priority 2015, dated 2022)
